This note sets out measurements from patent US20260317356A1, “SMALL MOLECULE MODULATORS OF OGG1” (AZKARRA THERAPEUTICS, INC., priority 2023, published 2026).

Sequence of hOGG1 (O15527 12-323): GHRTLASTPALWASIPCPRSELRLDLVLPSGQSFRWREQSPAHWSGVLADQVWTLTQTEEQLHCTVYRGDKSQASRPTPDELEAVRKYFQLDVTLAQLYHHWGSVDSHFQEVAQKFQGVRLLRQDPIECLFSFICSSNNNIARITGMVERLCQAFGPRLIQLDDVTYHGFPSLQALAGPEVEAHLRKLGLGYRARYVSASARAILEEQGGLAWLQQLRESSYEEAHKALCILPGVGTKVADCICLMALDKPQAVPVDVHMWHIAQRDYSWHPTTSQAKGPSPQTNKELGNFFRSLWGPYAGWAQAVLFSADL

The assay addresses hOGG1 (Homo sapiens, UniProt O15527). The assay is described as follows: Biochemical fluorescence assay to measure enzymatic activity of hOGG1 (OGG1/APEX IC50). More on the design: Protein His-hOGG1 (12-323) was prepared; His (N); host or cells: E. coli. The following applies: 1 nM OGG1+2 nM APEX+6 nM dsDNA (8-oxo-dG substrate); pH 7.5; RT 40 min; read-out: OGG1/APEX IC50. A digest of the protocol:
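His-hOGG1 (12-323, E. coli) at 1 nM with 2 nM hAPE1/APEX1, preincubated 20 min RT with compound. Then 6 nM 8-oxo-dG dsDNA substrate added, 40 min at RT in Tris pH 7.5, 100 mM KCl. TAMRA fluorescence (Ex520/Em600) converted to % inhibition vs controls; IC50 from 3-parameter fit of 10-point curve.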
For `COc1cc(NC(=O)[C@H]2CC[C@@H](N3Cc4c(Br)cc(NC(=O)Cn5ccnc5)cc4C3=O)CC2)ccc1C` [Example 196, (1s,4s)-4-(6-(2-(1H-Imidazol-1-yl)acetamido)-4-bromo-1-oxoisoindolin-2-yl)-N-(3-methoxy-4-methylphenyl)cyclohexanecarboxamide], the IC50 lay in the range of 100 to 1000 nM.
For `COc1cc(NC(=O)[C@H]2CC[C@@H](N3Cc4c(O)cccc4C3=O)CC2)ccc1C` [Example 197, (1s,4s)-4-(4-Hydroxy-1-oxoisoindolin-2-yl)-N-(3-methoxy-4-methylphenyl)cyclohexanecarboxamide], the IC50 was 1000 to 10000 nM.
Regarding `COc1cc(NC(=O)[C@H]2CC[C@@H](N3Cc4c(Br)cc(NCCN(C)C)cc4C3=O)CC2)ccc1C` [Example 198, (1s,4s)-4-(4-Bromo-6-(2-(dimethylamino)ethylamino)-1-oxoisoindolin-2-yl)-N-(3-methoxy-4-methylphenyl)cyclohexanecarboxamide], the IC50 was less than 100 nM.
As for `COc1cc(NC(=O)[C@H]2CC[C@@H](N3Cc4c(Br)cc(NC(=O)CN5CCOCC5)cc4C3=O)CC2)ccc1C` [Example 199, (1s,4s)-4-(4-Bromo-6-(2-morpholinoacetamido)-1-oxoisoindolin-2-yl)-N-(3-methoxy-4-methylphenyl)cyclohexanecarboxamide], the IC50 was 100 to 1000 nM.
In the case of `COc1cc(NC(=O)[C@H]2CC[C@@H](N3Cc4c(Br)cc(NC(=O)CN5CCC5)cc4C3=O)CC2)ccc1C` [Example 200, (1s,4s)-4-(6-(2-(Azetidin-1-yl)acetamido)-4-bromo-1-oxoisoindolin-2-yl)-N-(3-methoxy-4-methylphenyl)cyclohexanecarboxamide], the IC50 fell in the range of 100 to 1000 nM.
`COc1cc(NC(=O)[C@H]2CC[C@@H](N3Cc4c(Br)cc(NC(=O)Cc5c[nH]cn5)cc4C3=O)CC2)ccc1C` [Example 201, (1s,4s)-4-(6-(2-(1H-Imidazol-4-yl)acetamido)-4-bromo-1-oxoisoindolin-2-yl)-N-(3-methoxy-4-methylphenyl)cyclohexanecarboxamide]: the IC50 is 100 to 1000 nM.
Consider `COc1cc(NC(=O)[C@H]2CC[C@@H](N3Cc4c(Br)cc(NC(=O)CN(C)C)cc4C3=O)CC2)ccc1C` [Example 202, (1s,4s)-4-(4-bromo-6-(2-(dimethylamino)acetamido)-1-oxoisoindolin-2-yl)-N-(3-methoxy-4-methylphenyl)cyclohexanecarboxamide], for which the IC50 was in the range of 100 to 1000 nM.
For `COc1cc(NC(=O)[C@H]2CC[C@@H](N3Cc4c(Br)cc(NCCN5CCOCC5)cc4C3=O)CC2)ccc1C` [Example 203, (1s,4s)-4-(4-Bromo-6-(2-morpholinoethylamino)-1-oxoisoindolin-2-yl)-N-(3-methoxy-4-methylphenyl)cyclohexanecarboxamide], the IC50 lay in the range of 100 to 1000 nM.
As for `COc1cc(NC(=O)[C@H]2CC[C@@H](N3Cc4c(Br)cc(NC(=O)CCN(C)C)cc4C3=O)CC2)ccc1C` [Example 204, (1s,4s)-4-(4-Bromo-6-(3-(dimethylamino)propanamido)-1-oxoisoindolin-2-yl)-N-(3-methoxy-4-methylphenyl)cyclohexanecarboxamide], the IC50 is less than 100 nM.
With `COc1cc(NC(=O)[C@H]2CC[C@@H](N3Cc4c(Br)cc(NCCCN(C)C)cc4C3=O)CC2)ccc1C` [Example 205, (1s,4s)-4-(4-Bromo-6-(3-(dimethylamino)propylamino)-1-oxoisoindolin-2-yl)-N-(3-methoxy-4-methylphenyl)cyclohexanecarboxamide], the IC50 was less than 100 nM.
Turning to `COc1cc(NC(=O)[C@H]2CC[C@@H](N3Cc4c(C)cc(O)cc4C3=O)CC2)ccc1C` [Example 206, (1s,4s)-4-(6-Hydroxy-4-methyl-1-oxoisoindolin-2-yl)-N-(3-methoxy-4-methylphenyl)cyclohexanecarboxamide], the IC50 was less than 100 nM.
For `COc1cc(NC(=O)[C@H]2CC[C@@H](N3Cc4c(C)cc(NCCN(C)C)cc4C3=O)CC2)ccc1C` [Example 208, (1s,4s)-4-(6-(2-(Dimethylamino)ethylamino)-4-methyl-1-oxoisoindolin-2-yl)-N-(3-methoxy-4-methylphenyl)cyclohexanecarboxamide], the IC50 was less than 100 nM.
`COc1cc(NC(=O)[C@H]2CC[C@@H](N3Cc4c(C)cc(OCCN(C)C)cc4C3=O)CC2)ccc1C` [Example 209, (1s,4s)-4-(6-(2-(Dimethylamino)ethoxy)-4-methyl-1-oxoisoindolin-2-yl)-N-(3-methoxy-4-methylphenyl)cyclohexanecarboxamide]: the IC50 was less than 100 nM.
With `COc1cc(NC(=O)[C@H]2CC[C@@H](N3Cc4c(C)cc(C=O)cc4C3=O)CC2)ccc1C` [Example 210, (1s,4s)-4-(6-Formyl-4-methyl-1-oxoisoindolin-2-yl)-N-(3-methoxy-4-methylphenyl)cyclohexanecarboxamide] the figure was 100 to 1000 nM.
With `COc1cc(NC(=O)[C@H]2CC[C@@H](N3Cc4c(C)cc(C(=O)O)cc4C3=O)CC2)ccc1C` [Example 211, 2-((1s,4s)-4-(3-Methoxy-4-methylphenylcarbamoyl)cyclohexyl)-7-methyl-3-oxoisoindoline-5-carboxylic Acid] the figure was 100 to 1000 nM; with `CNC(=O)c1cc(C)c2c(c1)C(=O)N([C@H]1CC[C@@H](C(=O)Nc3ccc(C)c(OC)c3)CC1)C2` [Example 212, 2-((1s,4s)-4-(3-Methoxy-4-methylphenylcarbamoyl)cyclohexyl)-N,7-dimethyl-3-oxoisoindoline-5-carboxamide], 100 to 1000 nM.
For the compound `COc1cc(NC(=O)[C@@H]2[C@@H]3C[C@@H](N4Cc5c(Br)cccc5C4=O)C[C@@H]32)ccc1C` [Example 213, (1R,5S,6s)-3-(4-Bromo-1-oxoisoindolin-2-yl)-N-(3-methoxy-4-methylphenyl)bicyclo[3.1.0]hexane-6-carboxamide], the IC50 fell in the range of 1000 to 10000 nM.
`COc1cc(NC(=O)[C@H]2CC[C@@H](N3Cc4c(C)cc(CO)cc4C3=O)CC2)ccc1C` [Example 214, (1s,4s)-4-(6-(Hydroxymethyl)-4-methyl-1-oxoisoindolin-2-yl)-N-(3-methoxy-4-methylphenyl)cyclohexanecarboxamide]: the IC50 is 100 to 1000 nM.
As for `Cc1cccc2c1CN([C@H]1CC[C@@H](C(=O)Nc3ccc4cnn(C)c4c3)CC1)C2=O` [Example 215, (1s,4s)-4-(4-Methyl-1-oxoisoindolin-2-yl)-N-(1-methyl-1H-indazol-6-yl)cyclohexanecarboxamide], the IC50 lay within 1000 to 10000 nM.
As to `Cc1cccc2c1CN([C@H]1CC[C@@H](C(=O)Nc3ccc(Cl)cc3)CC1)C2=O` [Example 216, (1s,4s)-N-(4-Chlorophenyl)-4-(4-methyl-1-oxoisoindolin-2-yl)cyclohexanecarboxamide], the IC50 lay within 100 to 1000 nM.
On to `COc1cc(NC(=O)[C@H]2CC[C@@H](N3Cc4c(C)cc(C(=O)NCCN(C)C)cc4C3=O)CC2)ccc1C` [Example 217, N-(2-(Dimethylamino)ethyl)-2-((1s,4s)-4-(3-methoxy-4-methylphenylcarbamoyl)cyclohexyl)-7-methyl-3-oxoisoindoline-5-carboxamide], for which the IC50 was less than 100 nM.
Take `Cc1ccc(NC(=O)[C@H]2CC[C@@H](N3Cc4c(C)cccc4C3=O)CC2)cc1C#N` [Example 218, (1s,4s)-N-(3-Cyano-4-methylphenyl)-4-(4-methyl-1-oxoisoindolin-2-yl)cyclohexanecarboxamide]: the IC50 fell in the range of 1000 to 10000 nM.
Take `COc1ccc(NC(=O)[C@H]2CC[C@@H](N3Cc4c(C)cccc4C3=O)CC2)cc1OC` [Example 219, (1s,4s)-N-(3,4-dimethoxyphenyl)-4-(4-methyl-1-oxoisoindolin-2-yl)cyclohexanecarboxamide]: the IC50 lay within 100 to 1000 nM.
For the compound `Cc1cc(NC(=O)[C@H]2CC[C@@H](N3Cc4c(C)cccc4C3=O)CC2)ccc1O` [Example 220, (1s,4s)-N-(4-Hydroxy-3-methylphenyl)-4-(4-methyl-1-oxoisoindolin-2-yl)cyclohexanecarboxamide], the IC50 lay in the range of 100 to 1000 nM.
As to `COc1ncc(NC(=O)[C@H]2CC[C@@H](N3Cc4c(C)cccc4C3=O)CC2)cc1Cl` [Example 221, (1s,4s)-N-(5-Chloro-6-methoxypyridin-3-yl)-4-(4-methyl-1-oxoisoindolin-2-yl)cyclohexanecarboxamide], the IC50 was 100 to 1000 nM.
On to `Cc1ccc(NC(=O)[C@H]2CC[C@@H](N3Cc4c(C)cccc4C3=O)CC2)cc1O` [Example 222, (1s,4s)-N-(3-Hydroxy-4-methylphenyl)-4-(4-methyl-1-oxoisoindolin-2-yl)cyclohexanecarboxamide], for which the IC50 lay within 1000 to 10000 nM.
For the compound `COc1cc(NC(=O)[C@H]2CC[C@@H](N3Cc4c(C)cccc4C3=O)CC2)ccc1Cl` [Example 223, (1s,4s)-N-(4-Chloro-3-methoxyphenyl)-4-(4-methyl-1-oxoisoindolin-2-yl)cyclohexanecarboxamide], the IC50 lay in the range of 100 to 1000 nM.
As for `COc1ccc(NC(=O)[C@H]2CC[C@@H](N3Cc4c(C)cccc4C3=O)CC2)cc1F` [Example 224, (1s,4s)-N-(3-Fluoro-4-methoxyphenyl)-4-(4-methyl-1-oxoisoindolin-2-yl)cyclohexanecarboxamide], the IC50 lay within 100 to 1000 nM.
With `Cc1cc(NC(=O)[C@H]2CC[C@@H](N3Cc4c(C)cccc4C3=O)CC2)ccc1Cl` [Example 225, (1s,4s)-N-(4-Chloro-3-methylphenyl)-4-(4-methyl-1-oxoisoindolin-2-yl)cyclohexanecarboxamide] the figure was 100 to 1000 nM.
Turning to `COc1cc(NC(=O)[C@H]2CC[C@@H](N3Cc4c(C)cc(OCc5ncc[nH]5)cc4C3=O)CC2)ccc1C` [Example 226, (1s,4s)-4-(6-((1H-Imidazol-2-yl)methoxy)-4-methyl-1-oxoisoindolin-2-yl)-N-(3-methoxy-4-methylphenyl)cyclohexanecarboxamide], the IC50 is 100 to 1000 nM.
